Results reported in patent publication US9504663B2, “Composition for the treatment of cystic fibrosis” (SciPharm SaRL, priority 2011, dated 2016).
Entries after “also recorded” stand apart in the source; their conditions may differ.

Legend:
[1] = test system: IB3-1 cells; assay: Treprostinil-induced [3H]cAMP accumulation in IB3-1 cells with or without PDE inhibitors; format: cell-based, human; conditions: for accumulation of cAMP with PDE3 inhibitors: in experiments
Method: IB3-1 cells were plated on 6 well-plates (0.2*10^6 cells/well in FIG. 1; 0.4*10^6 cells in FIG. 2) in complete growth medium (LHC-8+5% FCS). The following day, the adenine nucleotide pool was metabolically labeled by incubation with [3H]adenine (1 μCi/well) in Dulbecco's Modified Eagle Medium (DMEM) containing adenosine deaminase (1 unit/ml) for 4 h. Thereafter the medium was replaced with fresh medium; the cells were stimulated by sole addition of Treprostinil (in logarithmically spaced concentrations ranging from 0.1 to 30 μM) or of Treprostinil in combination with the indicated concentrations of PDE-inhibitors. After an incubation of 30 min, the cells were lysed by the addition of perchloric acid. The formation of [3H]cAMP was determined by sequential chromatography on Dowex 50WX-4 and neutral alumina columns followed by liquid scintillation counting of the eluate. The assay was performed in triplicate. IB3-1 cells were seeded onto PDL-coated wells of 6-well plates (2 to 2.5*10^5 cells/well) in complete growth medium (LHC-8+5% FCS). On the following day, the cellular adenine nucleotide pool was metabolically labelled by incubation with [^3H]adenine (1 μCi/well) in Dulbecco's Modified Eagle Medium (DMEM) in the presence of adenosine deaminase (5 μg/ml) for 4 h. Subsequently, the medium was replaced with fresh DMEM and the formation of cAMP was stimulated by addition of 5 μM forskolin, a direct activator of the adenylyl cyclase, or 10 μM treprostinil in the absence and presence of different concentrations of the following phosphodiesterase (PDE) inhibitors: ibudilast (0.3-1000 μM), Ro-20-1724 (0.03-300 μM), roflumilast (1 nM-10 μM), dipyridamole (0.01-100 μM), aminone (1, 10, 100 μM), anagrelide (1, 10, 100 μM), enoximone (1, 10, 100 μM), milrinone (1, 10, 100 μM) and cilostazol (0.1 to 100 μM) for 20 min at 37° C. […] The formation of [^3H]cAMP was quantified by liquid scintillation counting.

[2] = test system: IB3-1 cells; assay: Forskolin-triggered [3H]cAMP accumulation in IB3-1 cells with PDE inhibitors; format: cell-based, human; conditions: 5 μM forskolin
Method: IB3-1 cells were seeded onto PDL-coated wells of 6-well plates (2 to 2.5*10^5 cells/well) in complete growth medium (LHC-8+5% FCS). On the following day, the cellular adenine nucleotide pool was metabolically labelled by incubation with [^3H]adenine (1 μCi/well) in Dulbecco's Modified Eagle Medium (DMEM) in the presence of adenosine deaminase (5 μg/ml) for 4 h. Subsequently, the medium was replaced with fresh DMEM and the formation of cAMP was stimulated by addition of 5 μM forskolin, a direct activator of the adenylyl cyclase, or 10 μM treprostinil in the absence and presence of different concentrations of the following phosphodiesterase (PDE) inhibitors: ibudilast (0.3-1000 μM), Ro-20-1724 (0.03-300 μM), roflumilast (1 nM-10 μM), dipyridamole (0.01-100 μM), aminone (1, 10, 100 μM), anagrelide (1, 10, 100 μM), enoximone (1, 10, 100 μM), milrinone (1, 10, 100 μM) and cilostazol (0.1 to 100 μM) for 20 min at 37° C. In some instances, the effect of these inhibitors on basal cAMP accumulation was examined by incubating cells in the absence of any additional stimulus with increasing concentrations of PDE-inhibitors (i.e., dipyridamole, ibudilast and Ro-20-1724 at 1, 10 and 100 μM; roflumilast at and 0.1, 1 and 10 μM of Roflumilast). Concentration-response curves for treprostinil were obtained by adding treprostinil (0.1 to 30 μM) alone or in combination with 100 μM Ro-20-1724, 100 μM ibudilast or 5 μM roflumilast. The reaction performed in triplicate was stopped by adding 2.5% perchloric acid together with 0.1 mM (unlabelled) cAMP. [^3H]cAMP was isolated by sequential chromatography on Dowex 50W-X4 and neutral alumina columns. The formation of [^3H]cAMP was quantified by liquid scintillation counting.

[3] = test system: cystic fibrosis transmembrane conductance regulator/Cl- channel (CFTR); assay: Whole cell patch clamp of treprostinil-induced Cl- currents through CFTR, Example 3; format: cell-based, human; conditions: for effect on treprostinil-induced CFTR current of adding PDE4 inhibitor: added on top of treprostinil
Method: The following human bronchial epithelial cell lines were obtained through ATCC: BEAS-2B (ATCC CRL-9609), NuLi-1 (ATCC CRL-4011), IB3-1 (ATCC CRL-2777), CuFi-1 (ATCC CRL-4013). Cells were propagated using the culture conditions outlined in the ATCC recommendations, e.g., I3B-1 cells were maintained on dishes coated with fibronectin (10 μg/m) rat collagen I (30 μg/ml) and BSA 10 μg/mL) in LHC-8 medium (Gibco) containing 5% fetal calf serum (FCS) at 37° C. in a 5% CO2 humified atmosphere. BEAS-2B cells were maintained at 37° C. in a 5% CO2 humified atmosphere on dishes precoated with collagen IV (60 μg/ml in 0.25% acetic acid) in BEGM medium (Lonza); the GA-1000 (gentamycin-amphotericin B mix) provided with the BEGM kit was not added to the medium. The level of endogenous expression of CFTR was too low to obtain a reliable signal. Accordingly, BEAS-2B cells were transiently transfected with a plasmid driving the expression of human GFP-tagged wild type CFTR by using Lipofectamine Plus® (Invitrogen) according to the instructions of the manufacturer. Cells expressing this GFP-tagged CFTR were identified by fluorescence microscopy and subjected to patch clamp recordings as outlined below. The whole cell patch clamp technique was used for current recordings performed at 22±1.5° C. using an Axoclamp 200B patch clamp amplifier (Axon Instruments). Pipettes had resistances between 1 and 2 MO when filled with the recording pipette solution (composition: 110 mM CsCl, 5 mM EGTA, 2 mM MgCl2, 1 mM K2.ATP, 10 mM Hepes, pH adjusted to 7.2 with CsOH). Voltage-clamp protocols and data acquisition were performed with […] 6.0 software (Axon Instruments). Data were low-pass filtered at 2 kHz (-3 dB) and digitized at 10-20 kHz. Cells were continuously superfused with external solution (composition: 145 mM NaCl, 4.5 mM KCl, 2 mM CaCl2, 1 mM MgCl2, 5 mM glucose, 10 mM Hepes, pH adjusted to 7.4 with NaOH). When indicated, the external solution contained Treprostinil (10 μM) or forskolin (5 μM), switching between solutions was achieved by electronically controlled pressure valves.

[4] = aerosolised; patient with cystic fibrosis and secondary pulmonary hypertension; cited from earlier work
[5] = test system: rabbit erythrocytes; conditions: cited from earlier work
[6] = test system: CFTR-wt; assay: Whole cell patch clamp of Cl- current in IB3-1 cells transiently expressing GFP-tagged wild type CFTR; format: cell-based, human
Method: The whole cell patch clamp technique was used for current recordings performed at 22±1.5° C. using an Axoclamp 200B patch clamp amplifier (Axon Instruments). Pipettes had resistances between 1 and 2 MΩ when filled with the recording pipette solution (composition: 110 mM CsCl, 5 mM EGTA, 2 mM MgCl2, 1 mM K2.ATP, 10 mM Hepes, pH adjusted to 7.2 with CsOH). […] Data were low-pass filtered at 2 kHz (-3 dB) and digitized at 10-20 kHz. Cells were continuously superfused with external solution (composition: 145 mM NaCl, 4.5 mM KCl, 2 mM CaCl2, 1 mM MgCl2, 5 mM glucose, 10 mM Hepes, pH adjusted to 7.4 with NaOH). When indicated, the external solution contained Treprostinil (10 μM) or forskolin (5 μM), switching between solutions was achieved by electronically controlled pressure valves. IB3-1 cells were grown on dishes (Nunc, 3.5 cm diameter) covered with fibronectin (10 μg/mL) rat collagen I (30 μg/mL) and BSA 10 μg/mL) in LHC-8 medium (Gibco) containing 5% fetal calf serum (FCS). Cells were transiently transfected with a plasmid driving the expression of human GFP-tagged wild type CFTR by using Lipofectamine Plus® (Invitrogen) according to the instructions of the manufacturer. […] A transiently transfected IB3-1 cell expressing GFP-tagged wild type CFTR was selected under fluorescent light and clamped to a holding potential at -40 mV. Depolarization was induced by a voltage step to +60 mV for 50 ms and the current amplitude was recorded. Wash-in of Treprostinil (10 μM final concentration, TP) was initiated at the time point 50 s and terminated at 125 s. Forskolin was washed in at 275 s and was removed at 375 s.

[7] = test system: human erythrocytes; conditions: cited from earlier work

SMILES: O=C1CCc2cc(OCCCCc3nnnn3C3CCCCC3)ccc2N1 [Cilostazol]
- accumulation of cAMP with PDE3 inhibitors [1]: did not induce any accumulation of cAMP

SMILES: OCCN(CCO)c1nc(N2CCCCC2)c2nc(N(CCO)CCO)nc(N3CCCCC3)c2n1 [dipyridamole]
- enhancement of the cAMP accumulation triggered by forskolin [2]: substantially enhanced
- relative potency as inhibitor, forskolin-triggered cAMP accumulation [2]: less potent inhibitor
- efficacy in treprostinil-triggered cAMP accumulation ([1]; 10 μM treprostinil): higher efficacy

SMILES: O=C(Nc1c(Cl)cncc1Cl)c1ccc(OC(F)F)c(OCC2CC2)c1 [Roflumilast, 3-(cyclopropylmethoxy)-N-(3,5-dichloropyridin-4-yl)-4-(difluoromethoxy)benzamide]
- enhancement of the cAMP accumulation triggered by forskolin [2]: substantially enhanced
- relative potency as inhibitor, forskolin-triggered cAMP accumulation [2]: most potent inhibitor
- effect on treprostinil-induced CFTR current of adding PDE4 inhibitor [3]: additional increase of the current

SMILES: CC#CCC(C)[C@H](O)/C=C/[C@@H]1[C@H]2C/C(=C/CCCC(=O)O)C[C@H]2C[C@H]1O (stereo partly drawn) [Iloprost, 5-{(E)-(1S,5S,6R,7R)-7-hydroxy-6-[(E)-(3S,4RS)-3-hydroxy-4-methyl-1-octen-6-inyl]-bi-cyclo[3.3.0]octan-3-ylidene}pentanoic acid]
- pulmonary artery pressure [4]: effective in lowering pulmonary artery pressure

SMILES: CCCCOc1cc(CC2CNC(=O)N2)ccc1OC (centres unmarked) [RO20-1724]
- enhancement of the cAMP accumulation triggered by forskolin [2]: substantially enhanced
- relative efficacy, forskolin-triggered cAMP accumulation ([2]; compared with roflumilast): more effective than roflumilast
- effect on treprostinil-induced CFTR current of adding PDE4 inhibitor [3]: additional increase of the current

SMILES: O=C1CN2Cc3c(ccc(Cl)c3Cl)N=C2N1 [Anagrelide]
- accumulation of cAMP with PDE3 inhibitors [1]: did not induce any accumulation of cAMP

SMILES: CCCCC[C@H](O)CC[C@@H]1[C@H]2Cc3cccc(OCC(=O)[O-])c3C[C@H]2C[C@H]1O.[Na+] [Treprostinil, (1R,2R,3aS,9aS)-[[2,3,3a,4,9,9a-hexahydro-2-hydroxy-1-[(3S)-3-hydroxyoctyl]-1H-benz[f]inden-5-yl]oxy]acetic acid monosodium salt]
- receptor-mediated cAMP synthesis and ATP release [5]: stimulate
- activation of the current (CFTR) ([6]; 10 μM Treprostinil, depolarization from −40 mV holding potential to +60 mV, monosodium salt): robust activation; also recorded: can activate CFTR
- time for current to decay to basal after washout ([6]; 10 μM treprostinil): ~100 s
- activation of CFTR (outward current) ([3]; voltage jumps from −20 to −80 mV): sustained activation of CFTR
- receptor-mediated cAMP synthesis and ATP release [7]: stimulate
